Structures can show the parent of a compound that is named as a salt.
Assay: MIC of test compounds against various organisms
Type: cell-based
Conditions: not given

| Structure (SMILES) | MIC |
| --- | --- |
| COc1ccc2nccc(NC(=O)C3=CCC(N(CC(=O)O)Cc4ccc5c(c4)NC(=O)CS5)CC3)c2n1 (racemic) [Example 156, (R/S)-4-[Carboxymethyl-(3-oxo-3,4-dihydro-2H-benzo[1,4]thiazin-6-ylmethyl)-amino]-cyclohex-1-enecarboxylic Acid (6-methoxy-[1,5]naphthyridin-4-yl)-amide Bis(trifluoroacetate) Salt] | ≤ 16 µg/mL |
| COc1ccc2nccc(NC(=O)[C@H]3CC[C@H](NCc4ccc5c(c4)NC(=O)CS5)CC3)c2c1 [Example 28, Trans 4-[(3-Oxo-3,4-dihydro-2-H-benzo[1,4]thiazin-6-ylmethyl)-amino]-cyclohexanecarboxylic acid (6-methoxy-quinolin-4-yl)-amide] | ≤ 4 µg/mL |

Same assay, conditions: versus all these organisms (panel of 10 strains); read-out: MIC

| Structure (SMILES) | MIC |
| --- | --- |
| COc1ccc2nccc(NC(=O)[C@H]3CC[C@H](NCc4cnc5c(c4)OCCO5)CC3)c2n1 [Example 20, Trans-4-[(2,3-Dihydro-[1,4]dioxino[2,3-b]pyridin-7-ylmethyl)-amino]-cyclohexanecarboxylic acid (6-methoxy-[1,5]naphthyridin-4-yl)-amide oxalate salt] | ≤ 4 µg/mL |
| NCCCOc1ccc2nccc(NC(=O)[C@H]3CC[C@H](NCc4ccc5c(c4)OCCO5)CC3)c2n1 [Example 29, Trans-4-[(2,3-Dihydro-benzo[1,4]dioxin-6-ylmethyl)-amino]-cyclohexanecarboxylic acid [6-(3-amino-propoxy)-[1,5]naphthyridin-4-yl]-amide dioxalate] | ≤ 16 µg/mL |
| COc1ccc2nccc(C(O)C[C@H]3CC[C@H](NCc4ccc5c(c4)OCCO5)CC3)c2c1 (stereo partly drawn) [Example 22, Trans-2-{4-[(2,3-Dihydro-benzo[1,4]dioxin-6-ylmethyl)-amino]-cyclohexyl}-1-(6-methoxy-quinolin-4-yl)-ethanol oxalate salt] | ≤ 16 µg/mL |
| COc1ccc2nccc(C(=O)C[C@H]3CC[C@H](NCc4ccc5c(c4)OCCO5)CC3)c2c1 [Example 27, Trans-2-{4-[(2,3-Dihydro-benzo[1,4]dioxin-6-ylmethyl)-amino]-cyclohexyl}-1-(6-methoxy-quinolin-4-yl)-ethanone oxalate salt] | ≤ 64 µg/mL |
| COc1ccc2nccc(NC(=O)[C@H]3CC[C@H](NCc4cc5c(cc4[N+](=O)[O-])OCO5)CC3)c2n1.O=C(O)C(=O)O [Example 23, Trans-4-[(6-Nitro-benzo[1,3]dioxol-5-ylmethyl)-amino]-cyclohexanecarboxylic acid (6-methoxy-[1,5]naphthyridin-4-yl)-amide oxalate salt] | ≤ 4 µg/mL |
| COc1ccc2nccc(NC(=O)[C@H]3CC[C@H](NCc4ccc5c(n4)OCCO5)CC3)c2n1 [Example 18, Trans-4-[(2,3-Dihydro-[1,4]dioxino[2,3-b]pyridin-6-ylmethyl)-amino]-cyclohexanecarboxylic acid (6-methoxy-[1,5]naphthyridin-4-yl)-amide oxalate salt] | ≤ 64 µg/mL |
| COc1ccc2nccc(NC(=O)[C@H]3CC[C@H](NCc4ccc5c(c4)NC(=O)CS5)CC3)c2n1 [Example 4, Trans-4-[(3-Oxo-3,4-dihydro-2H-benzo[1,4]thiazin-6-ylmethyl)-amino]-cyclohexane carboxylic acid (6-methoxy-[1,5]naphthyridin-4-yl)-amide fumarate salt] | ≤ 4 µg/mL |
| COc1ccc2nccc(NC(=O)[C@H]3CC[C@H](NCc4ccc5scnc5c4)CC3)c2n1 [Example 25, Trans-4-[(Benzothiazol-5-ylmethyl)-amino]cyclohexanecarboxylic acid(6-methoxy-[1,5]naphthyridine-4-yl)amide oxalate salt] | ≤ 64 µg/mL |
| COc1ccc2nccc(NC(=O)[C@H]3CC[C@H](NCc4ccc5nsnc5c4)CC3)c2c1 [Example 12, Trans-4-[(Benzo[1,2,5]thiadiazol-5-ylmethyl)-amino]-cyclohexanecarboxylic acid (6-methoxy-quinolin-4-yl)-amide fumarate salt] | ≤ 4 µg/mL |
| COc1ccc2nccc(C(O)C[C@H]3CC[C@H](NCc4ccc5c(c4)NC(=O)CS5)CC3)c2c1 (stereo partly drawn) [Example 21, Trans-6-({4-[2-Hydroxy-2-(6-methoxy-quinolin-4-yl)-ethyl]-cyclohexylamino}-methyl)-4-H-benzo[1,4]thiazin-3-one oxalate salt] | ≤ 4 µg/mL |
| COc1ccc2nccc(NC(=O)[C@H]3CC[C@H](NCc4ccc5c(c4)OCCO5)CC3)c2c1 [Example 11, Trans-4-[(2,3-Dihydro-benzo[1,4]dioxin-6-ylmethyl)-amino]-cyclohexanecarboxylic acid (6-methoxy-quinolin-4-yl)-amide fumarate salt] | ≤ 16 µg/mL |
| COc1ccc2nccc(NC(=O)[C@H]3CC[C@H](NCc4cc(=O)n5ccccc5n4)CC3)c2n1 [Example 26, Trans-4-[(4-Oxo-4 H pyrido[1,2-a]pyrimidin-2-ylmethyl)-amino]-cyclohexanecarboxylic acid (6-methoxy-[1,5]naphthyridin-4-yl)-amide oxalate salt] | ≤ 16 µg/mL |
| COc1ccc2nccc(NC(=O)[C@H]3CC[C@H](NCc4cc5cccnc5[nH]4)CC3)c2n1 [Example 3, Trans-4-[(1H-Pyrrolo[2,3-b]pyridin-2-ylmethyl)-amino]-cyclohexanecarboxylic acid (6-methoxy-[1,5]naphthyridin4-yl)-amide fumarate salt] | ≤ 4 µg/mL |
| COc1ccc2nccc(NC(=O)[C@H]3CC[C@H](NCc4ccc5c(c4)oc(=O)n5C)CC3)c2n1 [Example 7, Trans-4-[(3-Methyl-2-oxo-2,3-dihydro-benzooxazol-6-ylmethyl)-amino]-cyclohexanecarboxylic acid (6-methoxy-[1,5]naphthyridin-4-yl)-amide oxalate salt] | ≤ 64 µg/mL |
| COc1ccc2nccc(NC(=O)[C@H]3CC[C@H](NCc4ccc5nsnc5c4)CC3)c2n1 [Example 2, Trans-4-[(Benzo[1,2,5]thiadiazol-5-ylmethyl)-amino]-cyclohexanecarboxylic acid (6-methoxy-[1,5]naphthyridin-4-yl)-amide fumarate salt] | ≤ 4 µg/mL |
| COc1ccc2nccc(NC(=O)[C@H]3CC[C@H](NCc4ccc5c(n4)NC(=O)CO5)CC3)c2n1 [Example 31, Trans-4-[(3-Oxo-3,4-dihydro-2H-pyrido[3,2-b][1,4]oxazin-6-ylmethyl)-amino]-cyclohexanecarboxylic acid (6-methoxy-[1,5]naphthyridin-4-yl)-amide oxalate] | ≤ 4 µg/mL |

Other lines, results leading:

| MIC | Structure (SMILES) |
| --- | --- |
| ≤ 4 µg/mL | COc1ccc2nccc(NC(=O)C3=CCC(NCc4cnc5c(c4)NC(=O)CS5)CC3)c2n1 (racemic) [Example 153, (R/S)-4-[(2-Oxo-2,3-dihydro-1H-pyrido[2,3-b][1,4]thiazin-7-ylmethyl)-amino]-cyclohex-1-ene carboxylic acid (6-methoxy-[1,5]naphthyridin-4-yl)-amide oxalate] |
| ≤ 4 µg/mL | COc1ccc2nccc(NC(=O)[C@]3(O)CC[C@@H](NCc4cc5c(cn4)SCC(=O)N5)CC3)c2n1 [Example 302, 1-Hydroxy-t-4-[(2-oxo-2,3-dihydro-1H-pyrido[3,4-b][1,4]thiazin-7-ylmethyl)-amino]-r-cyclohexanecarboxylic Acid (6-methoxy-[1,5]naphthyridin-4-yl)-amide Dihydrochloride] |
| ≤ 4 µg/mL | COc1cc(F)c2nccc(NC(=O)[C@]3(O)CC[C@@H](NCc4ccc5c(n4)NC(=O)CS5)CC3)c2c1 [Example 390, 1-Hydroxy-t-4-[(3-oxo-3,4-dihydro-2H-pyrido[3,2-b][1,4]thiazin-6-ylmethyl)-amino-r-cyclohexanecarboxylic acid (8-fluoro-6-methoxy-quinolin-4-yl)-amidedihydrochloride] |
| ≤ 4 µg/mL | COc1ccc2nccc(NC(=O)C3=CCC(NCc4cc5c(cc4F)OCC(=O)N5)CC3)c2n1 (racemic) [Example 154, (R/S)-4-[(7-Fluoro-3-oxo-3,4-dihydro-2H-benzo[1,4]oxazin-6-ylmethyl)-amino]-cyclohex-1-ene carboxylic acid (6-methoxy-[1,5]naphthyridin-4-yl)-amide oxalate] |
| ≤ 4 µg/mL | COc1ccc2nccc(NC(=O)[C@H]3CC[C@H](NCc4cnc5snnc5c4)CC3)c2n1 [Example 32, Trans-4-[([1,2,3]Thiadiazolo[5,4-b]pyridin-6-ylmethyl)-amino]-cyclohexanecarboxylic acid (6-methoxy-[1,5]naphthyridin-4-yl)-amide oxalate] |
| ≤ 4 µg/mL | COc1ccc2nccc(NC(=O)[C@]3(O)CC[C@@H](NCc4ccc5c(n4)NC(=O)CO5)CC3)c2n1 [Example 305, 1-Hydroxy-t-4-[(3-oxo-3,4-dihydro-2H-pyrido[3,2-b][1,4]oxazin-6-ylmethyl)-amino]-r-cyclohexanecarboxylic Acid (6-methoxy-[1,5]naphthyridin-4-yl)-amide Dihydrochloride] |
| ≤ 4 µg/mL | COc1ccc2nccc(NC(=O)[C@H]3CC[C@H](NCc4cc5c(cc4F)SCC(=O)N5)CC3)c2n1 [Example 34, Trans-4-[(7-Fluoro-3-oxo-3,4-dihydro-2H-benzo[1,4]thiazin-6-ylmethyl)-amino]-cyclohexanecarboxylic acid (6-methoxy-[1,5]naphthyridin-4-yl)-amide oxalate salt] |
| ≤ 4 µg/mL | COc1ccc2nccc(NC(=O)[C@]3(O)CC[C@@H](NCc4ccc5c(n4)NC(=O)CS5)CC3)c2n1 [Example 301, 1-Hydroxy-t-4-[(3-oxo-3,4-dihydro-2H-pyrido[3,2-b][1,4]thiazin-6-ylmethyl)-amino]-r-cyclohexanecarboxylic Acid (6-methoxy-[1,5]naphthyridin-4-yl)-amide Dihydrochloride] |
| ≤ 4 µg/mL | COc1ccc2nccc(NC(=O)C3=CCC(NCc4ccc5c(c4)NC(=O)CS5)CC3)c2n1 (racemic) [Example 150, (R/S)-4-[(3-Oxo-3,4-dihydro-2H-benzo-[1,4]thiazin-6ylmethyl)-amino]-cyclohex-1-ene carboxylic acid (6-methoxy-[1,5]naphthyridin-4-yl)-amide oxalate] |
| ≤ 16 µg/mL | COc1ccc2nccc(NC(=O)C3=CCC(NCc4cnc5c(c4)NC(=O)CO5)CC3)c2n1 (racemic) [Example 155, (R/S)-4-[(2-Oxo-2,3-dihydro-1H-pyrido[2,3-b][1,4]oxazin-7-ylmethyl)-amino]-cyclohex-1-enecarboxylic Acid (6-methoxy-[1,5]naphthyridin-4-yl)-amide oxalate] |

From patent US7141564B2, “Nitrogen-containing bicyclic heterocycles for use as antibacterials” (priority 2001, dated 2006)
